From patent US20130315940A1, “TREATMENT OF LIVER CANCER” (priority 2010, published 2013)
Entries after “also recorded” stand apart in the source; their conditions may differ.

Assays:
Hepatocellular carcinoma = assay: Chloroquine in a rodent model of HCC (DEN and NMOR); type: in vivo, fisher rats; details: for animals that developed evidence of hepatocellular carcinoma: Chloroquine 25 mg/kg/day with DEN and NMOR, weeks 8, 10 and 12 pooled
Experimental: 40 five weeks old male fisher rats were studied. They were divided into 2 groups, Group 1 contained 15 rats who were taking DEN and NMOR alone. […] The rats have been given 100 mg/kg DEN (Diethylnitrosamine) (sigma) once intraperitoneal. Nitosomorpholine (NMOR) was been supplied in water with concentration of 80 ppm.
Liver and blood were collected from the animals after 8, 10 and 12 weeks respectively. […] (Table 2)

[1] = test system: HUCCT (cholangiocarcinoma); assay: Cholangiocarcinoma implantation in immunodeficient NOD-SCID mice; type: in vivo; details: for tumour size: after 50 days, compared with control, chloroquine 25 mg/kg in water supply (p<0.001), IRS 954 50 μl i.p. once weekly (p<0.01)
Experimental: 12 NOD-SCID mice were injected intrahepatically with 5×10^6 cells of HUCCT (cholangiocarcinoma). […] After 50 days a mass was found subcutaneously.

[2] = test system: HuH7 hepatocellular carcinoma cell line; assay: Cell proliferation in culture (cell counting, Promega proliferation assay), HuH7; type: cell-based; details: FIG. 13A, HuH7, in the presence of cpg
Description: Using different techniques, manual cell counting, nucleo-counter machine and Promega proliferation assay. Using 10^4 […] 96 wells plate treat some of them with cpg (TLR9 stimulator; […] In Huh7, HepG2 and HUCCT

HCC = assay: Animal model for HCC: DEN and NMOR treated Fisher rats plus norfloxacin; type: in vivo, Fisher rat; details: for fibrosis grade: DEN + NMOR + norfloxacin 20 mg/kg per day by gavage, 14 weeks treatment, end at 16th week
Experimental: We chose a Fisher Rat to be our model. We started with 18 Fisher rats, which were 5 weeks old on the beginning of the experiment. We divided them into 3 groups. They were acclimatised for one week before the experiment at room temperature […] and humidity 60%-65%. The first group used 6 Fisher rats as an HCC model. On the day we started we weighed them and determined the exact dose for each rat.
We started with a single dose of DEN (Diethylnitrosamine™, sigma) using 100 mg/kg as single intraperitoneal injection. Then we put NMOR (Nitrosomorpholine™, Sigma) in the concentration of 80 ppm in the water for 14 weeks. The second group, another 6 Fisher rats, got the same HCC model treatment (DEN and NMOR) plus we gavaged them with norfloxacin in the dose of 20 mg/kg per day. The third group, at the same time, was 6 rats with a control of just plain water. We weighed them every other day and stopped treatment on the 14th week, then left them for two more weeks until the 16th week. We noticed the two groups who took the DEN and NMOR didn't increase in weight at the same rate as the control.
When we started our experiment the rats average weights were 212-241 g in the 1st group, 225-260 g and 221-249 g in the 2nd and 3rd groups respectively. At the end of experiment for the groups that took the carcinogenecic treatment average weights were 328-353 g and 330-372 g respectively. For the control group the average weight was 430-478 g. […] Control group: Smooth bright outer surface of the liver.

CCN(CC)CCCC(C)Nc1ccnc2cc(Cl)ccc12 (centres unmarked) [Chloroquine]
animals that developed evidence of hepatocellular carcinoma (Hepatocellular carcinoma; untreated group 8/9, p<0.0001): 1/10
animals that developed evidence of hepatocellular carcinoma (Hepatocellular carcinoma; untreated group 89%): 10%
microscopic and macroscopic appearance of hepatocellular carcinoma (Hepatocellular carcinoma; FIG. 10, DEN and NMOR group administered chloroquine): not seen; also recorded: no cancer was apparent either microscopically or macroscopically
HCC in Chloroquine treated (Hepatocellular carcinoma; Week 8th, DEN & NMOR alone 2/3): 1/4
HCC in Chloroquine treated (Hepatocellular carcinoma; Week 10th, DEN & NMOR alone 3/3): 0/3
HCC in Chloroquine treated (Hepatocellular carcinoma; Week 12th, DEN & NMOR alone 3/3): 0/3
size of the nodules ([1]; FIG. 11B, compared with controls): significantly smaller
tumour size [1]: significant reduction
tumour size ([1]; listed as chloroquine): significantly less
inhibition of cpg associated proliferation [2]: significantly inhibited

CCn1cc(C(=O)O)c(=O)c2cc(F)c(N3CCNCC3)cc21 [norfloxacin]
fibrosis grade (HCC): 0-2
fibrosis grade (HCC; listed as Norfloxacin): minimal fibrosis
HCC development / tumour grade (HCC; DEN + NMOR + norfloxacin group (2nd group)): developed well-differentiated HCC except one
liver nodules (HCC; DEN, NMOR and Norfloxacin group versus DEN and NMOR group): less nodules than the first group
